{
  "source": "paper PMC5510889",
  "about": "(Metallomics : integrated biometal science, 2017)",
  "key": {"IsdG [1]": {"molecular_target": "T1, IsdG (Staphylococcus aureus, UniProt Q7A649)", "T1 sequence (Q7A649 whole entry)": "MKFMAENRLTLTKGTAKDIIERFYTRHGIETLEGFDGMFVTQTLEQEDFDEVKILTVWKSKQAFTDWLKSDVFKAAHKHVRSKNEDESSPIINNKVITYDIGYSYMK", "settings": "cited from earlier work"}, "IsdG [2]": {"molecular_target": "T1, IsdG", "settings": "UV/Vis titration fitted to Michaelis-Menten model; cited from earlier work"}, "IsdI [3]": {"molecular_target": "T2, IsdI (Staphylococcus aureus, UniProt Q7A827)", "T2 sequence (Q7A827 whole entry)": "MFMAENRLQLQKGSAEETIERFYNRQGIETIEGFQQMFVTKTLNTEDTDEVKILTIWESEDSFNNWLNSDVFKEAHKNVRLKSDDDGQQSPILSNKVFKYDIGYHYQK", "assay": "Fluorescence-detected heme titration", "type": "binding"}, "IsdI [4]": {"molecular_target": "T2, IsdI", "assay": "UV/Vis absorption-detected heme titration", "type": "binding"}, "myoglobin": {"molecular_target": "myoglobin", "settings": "cited from earlier work"}, "IsdG [5]": {"molecular_target": "T1, IsdG", "assay": "UV/Vis absorption-detected heme titration", "type": "binding"}, "IsdG [6]": {"molecular_target": "T1, IsdG", "assay": "Fluorescence-detected heme titration", "type": "binding"}, "IsdI [7]": {"molecular_target": "T2, IsdI", "settings": "UV/Vis titration fitted to Michaelis-Menten model; cited from earlier work"}, "IsdG [8]": {"molecular_target": "T1, IsdG", "assay": "Apomyoglobin competition assay", "type": "binding", "settings": "ratio of koff values, IsdG–heme vs IsdI–heme"}},
  "data": [
    {"smiles": "[N-]=[N+]=[N-]", "note": "[azide]", "values": [
      {"measurement": "mode of inhibition of IsdG", "setting": "IsdG [1]", "value": "uncompetitive inhibitors"}
    ]},
    {"smiles": "C=CC1=C(C)c2cc3[n-]c(cc4nc(cc5[n-]c(cc1n2)c(C)c5CCC(=O)O)C(CCC(=O)O)=C4C)c(C)c3C=C.[Fe+3]", "note": "[heme]", "values": [
      {"measurement": "Kd for heme, IsdG, as reported in the literature", "setting": "IsdG [2]", "value": "micromolar"},
      {"measurement": "Kd", "setting": "IsdI [3]", "value": "12.9 ± 1.3", "unit": "nM"},
      {"measurement": "Kd", "setting": "IsdI [4]", "value": "15 ± 10", "unit": "nM"},
      {"measurement": "Kd for heme dissociation from myoglobin", "setting": "myoglobin", "value": "femtomolar"},
      {"measurement": "Kd", "setting": "IsdG [5]", "value": "34 ± 20", "unit": "nM"},
      {"measurement": "Kd", "setting": "IsdG [6]", "value": "1.4 ± 0.6", "unit": "nM"},
      {"measurement": "heme binding to IsdG tighter than heme binding to IsdI", "setting": "IsdG [6]; ratio of fluorescence Kd values, IsdG vs IsdI", "value": "nine-fold"},
      {"measurement": "Kd for heme, IsdI, as reported in the literature", "setting": "IsdI [7]", "value": "micromolar"},
      {"measurement": "rate of heme dissociation from IsdG–heme slower than from IsdI–heme", "setting": "IsdG [8]", "value": "four-fold"}
    ]}
  ]
}
